In publication PMC8234864, “Early Effects of the Soluble Amyloid β25-35 Peptide in Rat Cortical Neurons: Modulation of Signal Transduction Mediated by Adenosine and Group I Metabotropic Glutamate Receptors” (International Journal of Molecular Sciences, 2021):
“Also recorded” adds a separate entry of the source.

What was measured:
[1] = test system: rat cortical neurons exposed to Aβ25-35; experiment: Effect of receptor ligands on Aβ25-35 induced toxicity (MTT); type: cell-based; details: ligand 100 µM added 30 min before Aβ25-35 (25 µM, 24 h)
Experimental: (§1) Aβ25-35 and Aβ1-42 were water-soluble peptides, however, while Aβ25-35, the functional domain of Aβ required for both neurotrophic and neurotoxic effects, was directly added to neuronal cultures after its solubilisation, Aβ1-42 was solved in water and maintained for 24 h at 37 °C before its addition to promote its aggregation. To test the effect of mGluR ligands on cell death induced by Aβ in neuronal cultures, these drugs were added 30 min before the addition of Aβ25-35 and maintained during Aβ exposure. Unless otherwise indicated, all chemicals were dissolved in water.
(§2) Cell viability was determined on 96-well plates using an in vitro toxicology assay kit based on a mitochondrial-dependent reaction that transforms 3-[4,5-dimetylthiazol-2-yl]-2,5-diphenyltetrazolium bromide (MTT) into formazan crystals. Briefly, at the end of treatments, cells were incubated in culture medium with MTT solution (5 mg/mL) at 37 °C for 3 h. After incubation, MTT solubilization solution (10% Triton X-100 plus 0.1 M HCl in isopropanol anhydrous) was added into the wells to dissolve formazan crystals and the absorbance of each well was measured at 570 nm and 690 nm, according to the manufacturer’s instructions.

[2] = test system: Group I mGluR/PLC signalling pathway; experiment: Phospholipase C activity (IP3 accumulation), basal and DHPG-stimulated; type: cell-based, rat; details: added 10 min before DHPG, control cells
Experimental: This method was previously reported and is divided into two well-defined steps: IP3 accumulation: culture medium was discharged, and cells were washed twice with DMEM containing 20 mM HEPES, pH 7.4. After 20 min at 37 °C, different ligands were added to cells for 10 min at 37 °C to analyse their effect on PLC activity in a final reaction volume of 300 μL. The enzymatic reaction was stopped and cells lysed by adding 50 μL 2.8 M perchloric acid and placing plates on ice for 30 min. The medium was neutralized with 70 μ[…] Tris-HCl, 2 M KOH, and 60 mM EGTA, transferred to Eppendorf tubes and centrifuged at 12,000× g for 10 min. The supernatant was then collected to determine the IP3 level. IP3 level determination: IP3 levels in cells were determined as previously reported by Palmer and modified by […] [100]. Incubation of [^3H]IP3 (0.2 pmol; 3000-5000 cpm) in assay buffer (100 mM Tris-HCl, 4 mM EDTA, 4 mM EGTA, 4 mg/mL BSA, pH 9.0), binding protein (500-600 μg), and 25-50 μL of supernatant obtained from IP3 accumulation assay was carried out. Samples were incubated at 4 °C for 60 min and centrifuged at 12,000× g for 10 min. Pellets were suspended in 100 μL 0.2% SDS and transferred to scintillation vials to measure radioactivity. A standard curve was made with known [^3H]IP3 concentrations (0.25-10 μM). Nonspecific binding was determined in the presence of 10 μM unlabeled IP3. Binding protein was obtained from bovine suprarenal capsules according to Palmer's protocol.

rat cortical neurons = experiment: MTT reduction cell viability assay after Aβ exposure; type: cell-based; details: 25 µM, 24 h, MTT, positive control
Experimental: as §1, §2

Row | Compound | effect on Aβ25-35 induced toxicity [1] | further results
1 | CCNC(=O)[C@H]1O[C@@H](n2cnc3c(N)nc(NCCc4ccc(CCC(=O)O)cc4)nc32)[C@H](O)[C@@H]1O [CGS21680, 2-[p-(2-carboxyethyl)phenylamino]-50-N-ethylcarboxyamide adenosine] | no significant effect | 
2 | Cc1cccc(C#Cc2ccccc2)n1.Cl [MPEP, 2-Methyl-6-(phenylethynyl)pyridine hydrochloride] |  | effect on DHPG-elicited PLC stimulation ([2]; 1 µM): blocked DHPG-elicited PLC stimulation
3 | CO[C@H]1CC[C@@H](C(=O)c2ccc3nc4c(cc3c2)CCCO4)CC1 [JNJ 16259685, (3,4-Dihydro-2H-pyrano[2,3-b]quinolin-7-yl)-(cis-4-methoxycyclohexyl)-methanone] |  | effect on DHPG-elicited PLC stimulation ([2]; 0.5 µM): blocked DHPG-elicited PLC stimulation
4 | CCCn1c(=O)c2[nH]c(C3CCCC3)nc2n(CCC)c1=O [DPCPX, 8-Cyclopentyl-1,3-dipropylxanthine] | no significant effect; also recorded: ineffective | 
5 | Aβ1-42: whole amyloid β peptide, kept 24 h at 37 °C to promote aggregation; positive control |  | cell viability (rat cortical neurons): decrease in cell viability
6 | OC[C@H]1O[C@@H](n2cnc3c(NC4CCCC4)ncnc32)[C@H](O)[C@@H]1O [CPA, N^6-cyclopentyladenosine] | no significant effect | 
7 | N[C@H](C(=O)O)c1cc(O)cc(O)c1 [DHPG, (S)-3,5-dihydroxyphenylglycine] | no significant effect | 
8 | Nc1nc(NCCc2ccc(O)cc2)nc2nc(-c3ccco3)nn12 [ZM241385, 4-(2-[7-Amino-2-(2-furyl) [1,2,4]triazolo [2,3-a] [1,3,5]triazin-5-ylamino]ethyl)phenol] | no significant effect | 
